Measurements as given in patent US11248246B2, “Beta-glucosidase for producing glucose and laminarioligosaccharide from sea weed” (Korea University Research and Business Foundation, priority 2018, dated 2022).
“Also recorded” adds a separate entry of the source.

Experiments:
[1] = test system: Bgl1B protein; assay: Effect of metal ions on the activity of the Bgl1B protein; assay type: biochemical, Saccharophagus degradans 2-40^T; details: for Relative enzymatic activity (%) / influence on enzymatic activity: 10 mM metal ion, 0.1% (w/v) cellobiose; for Relative enzymatic activity (%): relative to no metal ion
[2] = target: T1, Saccharophagus degradans 2-40^T β-glucosidase Bgl1B, recombinant (6 histidine residues at C-terminus), SEQ ID NO: 1 (nucleotide SEQ ID NO: 2) (Saccharophagus degradans, UniProt Q21KX3); assay: Enzymatic reaction rate of Bgl1B for various substrates (Lineweaver-Burk plot); assay type: biochemical; details: for Vmax / kcat: pH 6, 40° C., substrate 0.1-0.4% (w/v)
T1 sequence (Q21KX3 1-444): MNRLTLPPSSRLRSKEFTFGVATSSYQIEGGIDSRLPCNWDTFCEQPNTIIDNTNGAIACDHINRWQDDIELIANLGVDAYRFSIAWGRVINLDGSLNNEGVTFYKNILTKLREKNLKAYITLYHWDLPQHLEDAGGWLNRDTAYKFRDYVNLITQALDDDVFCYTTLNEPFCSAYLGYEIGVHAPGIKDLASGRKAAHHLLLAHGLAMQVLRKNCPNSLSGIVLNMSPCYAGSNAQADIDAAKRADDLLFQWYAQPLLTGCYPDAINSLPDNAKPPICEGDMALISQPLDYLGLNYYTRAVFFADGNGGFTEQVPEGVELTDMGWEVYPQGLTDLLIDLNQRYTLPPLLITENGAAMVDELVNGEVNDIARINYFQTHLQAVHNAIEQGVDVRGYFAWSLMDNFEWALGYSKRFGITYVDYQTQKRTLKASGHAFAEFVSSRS
Method: To obtain the genomic DNA of Saccharophagus degradans 2-40^T (ATCC43961), Saccharophagus degradans 2-40^T was cultured in a minimal medium containing 2.3 g of instant ocean sea salt, 20 mM Tris-HCl, 2 g of glucose, 1 g of yeast extract, and 0.5 g of ammonium chloride per 1 L at 30° C. for 12 hours. The genomic DNA was extracted using a commercial DNA isolation kit (Qiagen, Valencia, Calif., USA). The target gene bgl1B was amplified from the genomic DNA by PCR. […] To purify the protein by affinity chromatography, the nucleotide sequence of a gene encoding 6 histidine residues at the C-terminus was added. The PCR product and a pET21α vector were digested with NdeI and NotI, respectively, and ligated to construct a pET21α-Bgl1B plasmid. The plasmid was transformed into Escherichia coli DH5α.
To overexpress the obtained gene, the gene was transformed into a protein-expressing host, Escherichia coli B121 (DE3). The cells were cultured in a Luria-Bertani (LB) broth containing 50 mg/L of ampicillin at 37° C. until absorbance at 600 nm reached 0.6. To induce protein expression, 0.1 mM IPTG was added and the induction temperature was set at 16° C., and a protein was allowed to be overexpressed in a water-soluble form for 16 hours. After culture, centrifugation was performed to recover the cells, the cells were released using a 20 mM Tris-HCl buffer (pH 7.4), and then disrupted by ultrasonication and centrifuged again to obtain a supernatant. The recombinant protein was purified using a HisTrap column (GE Healthcare, Piscataway, USA). The purified protein was concentrated using an Amicon Ultra Centrifugal filter (30,000 molecular weight cut-off; Millipore, Billerica, Mass., USA), and the concentration of the protein was measured using a bicinchoninic acid (BCA) protein assay kit (Thermo Fisher Scientific, San Hose, Calif., USA).
(§1) To confirm the enzymatic reaction rate of the Bgl1B protein for various substrates, the Bgl1B protein was allowed to react with each substrate at various concentrations of 0.1-0.4% (w/v) at pH 6 and 40° C. Vmax, Km, and kcat, which are parameters related to an enzymatic reaction rate, were determined from the Lineweaver-Burk plot.

[3] = test system: Novozyme 188; assay: Enzymatic reaction rate of commercialized enzyme Novozyme 188 for substrates (comparison); assay type: biochemical; details: pH 6, 40° C. (as for Bgl1B)
Method: as §1

[4] = substrate: OC[C@H]1O[C@@H](O[C@H]2[C@H](O)[C@@H](O)C(O)O[C@@H]2CO)[C@H](O)[C@@H](O)[C@@H]1O; assay: purified protein, by the assay type; details: other: pH 6, 40° C., substrate 0.1-0.4% (w/v)
[5] = substrate: OC[C@H]1O[C@@H](OC[C@H]2OC(O)[C@H](O)[C@@H](O)[C@@H]2O)[C@H](O)[C@@H](O)[C@@H]1O; assay: purified protein, by the assay type; details: other: pH 6, 40° C., substrate 0.1-0.4% (w/v)
[6] = substrate: OC[C@H]1O[C@@H](O[C@H]2[C@H]3OC[C@@H]2OC(O)[C@H]3O)[C@H](O)[C@@H](O)[C@H]1O; assay: purified protein, by the assay type; details: other: pH 6, 40° C., substrate 0.1-0.4% (w/v)
[7] = substrate: OC[C@H]1O[C@@H](O[C@H]2[C@H](O)[C@@H](O)C(O)O[C@@H]2CO)[C@H](O)[C@@H](O)[C@H]1O; assay: purified protein, by the assay type; details: other: pH 6, 40° C., substrate 0.1-0.4% (w/v)
[8] = substrate: OC[C@H]1O[C@@H](O[C@H]2[C@H](O)[C@@H](CO)OC(O)[C@@H]2O)[C@H](O)[C@@H](O)[C@@H]1O; assay: purified protein, by the assay type; details: other: pH 6, 40° C., substrate 0.1-0.4% (w/v)

## [Cu+2] [Cu^2+]
[1]
  Relative enzymatic activity (%): 0.0 ± 0.0%

## [Mg+2] [Mg^2+]
[1]
  influence on enzymatic activity: does not have a great influence; also recorded: did not have a great influence
  Relative enzymatic activity (%): 98.9 ± 2.3%

## OC[C@H]1O[C@@H](O[C@H]2[C@H](O)[C@@H](O)C(O)O[C@@H]2CO)[C@H](O)[C@@H](O)[C@H]1O (some centres unmarked) [Lactose, lactose]
[2]
  Vmax: 1.0 × 10^0 U/mg protein
  kcat: 0.83 s⁻¹

## OC[C@H]1O[C@@H](O[C@H]2[C@H](O)[C@@H](CO)OC(O)[C@@H]2O)[C@H](O)[C@@H](O)[C@@H]1O (some centres unmarked) [Laminaribiose, laminaribiose]
[2]; Bgl1B compared to Novozyme 188
  Vmax, fold greater than Novozyme 188: 259 fold
  catalytic efficiency, fold greater than Novozyme 188: 108 fold
  kcat, fold greater than Novozyme 188: 108 fold
[2]
  Vmax: 1.1 × 10^2 U/mg protein
  kcat: 91 s⁻¹
[3]
  Km: 2.5 mM
  Vmax: 4.2 × 10^−1 U/mg protein
  kcat: 0.85 s⁻¹

## OC[C@H]1O[C@@H](O[C@H]2[C@H](O)[C@@H](O)C(O)O[C@@H]2CO)[C@H](O)[C@@H](O)[C@@H]1O (some centres unmarked) [Cellobiose, cellobiose]
[2]
  Vmax: 1.6 × 10^1 U/mg protein
  kcat: 13 s⁻¹
[3]
  Km: 3.4 mM
  Vmax: 3.9 × 10^0 U/mg protein
  kcat: 7.8 × 10^0 s^−1

## [Co+2] [Co^2+]
[1]
  influence on enzymatic activity: does not have a great influence; also recorded: did not have a great influence
  Relative enzymatic activity (%): 95.7 ± 1.6%

## [Ni+2] [Ni^2+]
[1]
  influence on enzymatic activity: does not have a great influence; also recorded: did not have a great influence
  Relative enzymatic activity (%): 90.3 ± 2.7%

## [Fe+2] [Fe^2+]
[1]
  Relative enzymatic activity (%): 8.2 ± 0.3%

## [Ca+2] [Ca^2+]
[1]
  Relative enzymatic activity (%): 82.0 ± 1.5%

## OC[C@H]1O[C@@H](OC[C@H]2OC(O)[C@H](O)[C@@H](O)[C@@H]2O)[C@H](O)[C@@H](O)[C@@H]1O (some centres unmarked) [Gentiobiose, gentiobiose]
[2]
  Vmax: 1.1 × 10^0 U/mg protein
  kcat: 0.88 s⁻¹

## OC[C@H]1O[C@@H](O[C@H]2[C@H]3OC[C@@H]2OC(O)[C@H]3O)[C@H](O)[C@@H](O)[C@H]1O (some centres unmarked) [Agarobiose, agarobiose]
[2]
  Vmax: 3.1 × 10^−1 U/mg protein
  kcat: 0.26 s⁻¹

## [Mn+2] [Mn^2+]
[1]
  Relative enzymatic activity (%): 52.6 ± 2.1%
[1]; metal ion, summary statement
  inhibits enzymatic activity by: about 50%

B1: Saccharophagus degradans 2-40^T β-glucosidase Bgl1B, recombinant (6 histidine residues at C-terminus), SEQ ID NO: 1 (nucleotide SEQ ID NO: 2) (Saccharophagus … (protein)
chain: MNRLTLPPSSRLRSKEFTFGVATSSYQIEGGIDSRLPCNWDTFCEQPNTIIDNTNGAIACDHINRWQDDIELIANLGVDAYRFSIAWGRVINLDGSLNNEGVTFYKNILTKLREKNLKAYITLYHWDLPQHLEDAGGWLNRDTAYKFRDYVNLITQALDDDVFCYTTLNEPFCSAYLGYEIGVHAPGIKDLASGRKAAHHLLLAHGLAMQVLRKNCPNSLSGIVLNMSPCYAGSNAQADIDAAKRADDLLFQWYAQPLLTGCYPDAINSLPDNAKPPICEGDMALISQPLDYLGLNYYTRAVFFADGNGGFTEQVPEGVELTDMGWEVYPQGLTDLLIDLNQRYTLPPLLITENGAAMVDELVNGEVNDIARINYFQTHLQAVHNAIEQGVDVRGYFAWSLMDNFEWALGYSKRFGITYVDYQTQKRTLKASGHAFAEFVSSRS
[4]
  Km: 20 mM
[5]
  Km: 13 mM
[6]
  Km: 69 mM
[7]
  Km: 20 mM
[8]
  Km: 0.99 mM
